According to PubChem BioAssay (NCI):
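Results reflect a 48-hour exposure of cells in 96-well plates to compound at five concentrations. TGI denotes the concentration required for complete inhibition of growth.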

How the values were obtained:
Experiment in all cases: DTP human tumour cell line panel, 48 h
[1] = system: NCI-H522 lung
[2] = system: RPMI-8226 leukemia
[3] = system: SN12C renal
[4] = system: EKVX NSCLC
[5] = system: SNB-19 CNS
[6] = system: SK-MEL-5 melanoma
[7] = system: SW-620 colon
[8] = system: SNB-75 CNS
[9] = system: MOLT-4 leukemia
[10] = system: SK-MEL-2 melanoma
[11] = system: U251 CNS
[12] = system: HCT-116 colon
[13] = system: HOP-92 NSCLC
[14] = system: OVCAR-8 ovarian
[15] = system: HCT-15 colon
[16] = system: IGROV1 ovarian
[17] = system: BT-549 breast
[18] = system: T-47D breast
[19] = system: A549 NSCLC
[20] = system: MALME-3M melanoma
[21] = system: HOP-62 NSCLC
[22] = system: MDA-N
[23] = system: HT29 colon
[24] = system: DU-145 prostate
[25] = system: K-562 leukemia
[26] = system: MDA-MB-435
[27] = system: NCI-H23 lung
[28] = system: ACHN renal
[29] = system: CAKI-1 renal
[30] = system: NCI-H460 lung
[31] = system: OVCAR-5 ovarian
[32] = system: UO-31 renal
[33] = system: HL-60(TB) leukemia
[34] = system: SF-268 CNS
[35] = system: UACC-257 melanoma
[36] = system: SK-OV-3 ovarian
[37] = system: HS 578T breast
[38] = system: SK-MEL-28 melanoma
[39] = system: SF-295 CNS
[40] = system: MCF7 breast
[41] = system: MDA-MB-231 breast
[42] = system: A498 renal
[43] = system: UACC-62 melanoma
[44] = system: OVCAR-3 ovarian
[45] = system: PC-3 prostate
[46] = system: KM12 colon
[47] = system: TK-10 renal
[48] = system: HCC-2998 colon
[49] = system: NCI-H226 lung
[50] = system: 786-0 renal
[51] = system: OVCAR-4 ovarian
[52] = system: RXF 393 renal
[53] = system: M14 melanoma
[54] = system: COLO 205 colon
[55] = system: LOX IMVI melanoma
[56] = system: NCI/ADR-RES ovarian
[57] = system: CCRF-CEM leukemia
[58] = system: SF-539 CNS

Measured: TGI

CC(C)CCNc1ncnc2[nH]ncc12
not listed: [57] | [58]
> 100 µM: all other assays above

O=C(N/N=C(/COc1ccccc1Cl)N=Cc1cccnc1)c1ccncc1
not listed: [6] | [13] | [32]
> 100 µM: all other assays above

CCCCNc1nc2nc[nH]c2c(=O)[nH]1
not listed: [33] | [38]
> 100 µM: all other assays above
